# Results as given in patent US9821067B2, “Lipopeptides for delivery of nucleic acids” (Marina Biotech, Inc., priority 2007, dated 2017).
# Primed or numbered codes have the meaning given here. No end group written: not given here. C20 = lipophilic group with a 20-carbon chain; PEG27′ = polyethylene glycol, 27 units; cysteamide = C-terminal cysteamide; C16 = N-terminal C16 lipid; C18 = N-terminal C18 lipid; C18″ = C18 lipid
# Key:
# [1] = test system: Cyclophilin B (PPIB) gene expression in A549 cells; assay: In vitro assay for PPIB gene expression knockdown in A549 cells; assay type: cell-based, human; settings: for % KD (vs QNeg) A549/PPIB: A549 cells, PPIB mRNA by RT-PCR 24 hours after transfection; for knockdown in the A549/PPIB assay: as compared to both Qneg and vehicle (data for vehicle not shown)
# Method: Cyclophilin B (PPIB) gene expression knockdown was measured in A549 human alveolar basal epithelial cells. For PPIB gene knockdown measurements, A549 cells were transfected with an interfering RNA formulation, total RNA prepared 24 hours after transfection, and PPIB mRNA assayed by RT-PCR. QRT-PCR of 36B4 (acidic ribosomal phosphoprotein PO) mRNA expression was performed for normalization.
# Confluency was about 50% at the time of transfection.
# For PPIB gene knockdown cells were lysed and RNA prepared (Invisorb RNA Cell HTS 96-Kit/C, Invitek, Berlin, or RNeasy 96 Kit, Qiagen). Quantitative RT-PCR was performed using One-Step qRT-PCR kit (Invitrogen) on a DNA Engine Opticon2 thermal cycler (BioRad).
# [2] = test system: LacZ gene (bacterial galactosidase) in 9L/LacZ cells; assay: In vitro assay for LacZ gene expression knockdown in 9L cells
# Method: 9L/LacZ is a rat gliosarcoma cell line stably expressing the LacZ gene that encodes bacterial galactosidase. LacZ gene knockdown measurements can be used as a primary activity-based in vitro assay for interfering RNA delivery formulations.
# For LacZ gene knockdown measurements, 9L/LacZ cells were transfected with an RNAi formulation, and a β-galactosidase assay was performed on cells harvested at day 3 post transfection. An additional assay was performed to quantify protein concentration.
# 9L/LacZ cells were plated at 8000 cells/well (96-well) and incubated overnight in medium. Confluency was about 15-20% at the time of transfection. Transfection complex was prepared by adding an interfering RNA to OptiMEM™ medium and vortexing, separately adding a delivery formulation to OptiMEM™ medium and vortexing, and finally mixing the interfering RNA in medium with the delivery formulation in medium to make the transfection complex. The medium for incubated cells was replaced with fresh no-serum media (OptiMEM™ without serum) and transfection complex was added to each well. Cells were incubated 5 hrs, then after the addition of 100 microliters complete medium (DMEM plus 10% fetal bovine serum) were incubated overnight at 37° C. and 5% CO2. The next day, 24 hours after transfection, the medium was changed to fresh complete medium and the cells were incubated another 48 hrs at 37° C. and 5% CO2.
# For LacZ gene knockdown, the harvested 9L/LacZ cells were washed in PBS, lysed in M-PER™ Reagent (Pierce), and incubated at room temperature for 15 minutes. Lysate was taken from each well for protein assay with a Micro BCA kit (Pierce, Thermo Fisher Scientific) and β-gal assay with All-in-One™ β-Galactosidase Assay Reagent (Pierce).
# [3] = N:P ratio 2, β-galactosidase assay day 3 post transfection
# [4] = N:P ratio 4, β-galactosidase assay day 3 post transfection
Substance,% KD (vs QNeg) A549/PPIB ([1]; N:P ratio 2) [%],"% KD (vs QNeg) L/9lacZ [2, 3] [%]",% KD (vs QNeg) A549/PPIB ([1]; N:P ratio 4) [%],"% KD (vs QNeg) L/9lacZ [2, 4] [%]",knockdown in the A549/PPIB assay [1]
(C18)-HHHHRRRRRRRR-Cysteamide (C18-HHHHRRRRRRRR-cysteamide),15.3,−0.8,–,–,–
Ac-GALFLAFLAAALSLMGLWSQPKKKRKV-Cysteamide (Ac-GALFLAFLAAALSLMGLWSQPKKKRKV-cysteamide),20.5,29.1,–,–,–
Ac-GALFLAFLAAALSLMGLWSQPKSKRKV-Cysteamide (Ac-GALFLAFLAAALSLMGLWSQPKSKRKV-cysteamide),15.5,29.5,16.0,−9.3,–
Ac-LIRLWSHLIHIWFQNRRLKWKKK-amide (Ac-LIRLWSHLIHIWFQNRRLKWKKK-NH2),8.7,−19.9,−28.8,−4.5,–
(C18)-HHHHHKHHHKKKHKHKKK-cysteamide (C18-HHHHHKHHHKKKHKHKKK-cysteamide),25.5,−11.3,21.6,−19.4,significant knockdown
Ac-GALFLGFLGAAGSTMGAWSQPKSKRKV-amide (Ac-GALFLGFLGAAGSTMGAWSQPKSKRKV-NH2),−8.1,−0.4,−3.7,−1.6,–
(C20)-(H)8(R)8(H)8K-NH-(C20) (C20-HHHHHHHHRRRRRRRRHHHHHHHHK(C20)),29.7,60.1,65.8,57.5,significant knockdown
(C16)-HHHHHKHHHKKKHKHKKK-Cysteamide (C16-HHHHHKHHHKKKHKHKKK-cysteamide),14.7,12.0,−19.8,12.4,–
(C18)-PEG27-HHHHHHHHRRRRRRRR-amide ({C18″-PEG27′}-HHHHHHHHRRRRRRRR-NH2),30.6,9.2,7.4,−16.1,–
